Experimental data: patent publication US5075224A, “Prepro-LHRH C-terminal peptide DNA” (Genentech, Inc., priority 1991, dated 1991)
Ends that are not written are not given here. Peptide text beside a SMILES is read from it.

Tested on: Pituitary cells from female Sprague-Dawley rats
Test: LH and FSH release from rat pituitary cell culture
Assay type: cell-based
Procedure: Pituitary cells from female Sprague-Dawley rats were established in cell culture by the method of K. Nikolics et al., "Peptides" 2: 65-73 (1981). 1 ml of about 1×10^-8 molar concentration of GAP or LHRH in medium 199 (a nutrient medium) was added to a four day pituitary cell culture per 5×10^5 cells. After 4 hours incubation at 37° C. in 5 percent CO2 /95 percent air the cell culture supernatant fluids were assayed for release of LH and FSH.
The anterior pituitary cell culture from female Sprague-Dawley rats was prepared as described in Example 6. In FIG. 7A the indicated concentrations of GAP (open circles, 10^-11 M; open squares, 3×10^-11 M; closed circles 10^-10 M; open squares, triangle 10^-8 M) were incubated with 5×10^5 cells/ml medium in 24-well culture plates for the indicated time. Media were assayed for PRL and values were expressed in terms of rPRL-RP-2 reference protein (National Pituitary and Hormone Program). The points are means ± standard deviation of four parallel culture wells of which duplicate samples were assayed by RIA. Basal levels were determined from eight parallel wells. The curves shown represent data obtained in three to five independent cell cultures.

[1] = 10^-8 M test sample, 4 hours incubation at 37° C., four day pituitary cell culture, supernatant

CC(C)C[C@H](NC(=O)[C@H](CC(=O)O)NC(=O)[C@H](CCCNC(=N)N)NC(=O)[C@H](CC(C)C)NC(=O)[C@@H]1CCCN1C(=O)[C@H](CO)NC(=O)[C@H](CCCNC(=N)N)NC(=O)[C@@H]1CCCN1C(=O)[C@H](CCC(N)=O)NC(=O)[C@H](Cc1c[nH]cn1)NC(=O)[C@@H](NC(=O)[C@@H](NC(=O)[C@@H](N)CS)[C@@H](C)O)[C@@H](C)O)C(=O)N[C@@H](CCCCN)C(=O)O [CTP-core polypeptide of Example 4, NH2 -cys-thr-thr-his-gln-pro-arg-ser-pro-leu-arg-asp-leu-lys-COOH] (H-CTTHQPRSPLRDLK-OH)
activity in LH and FSH release (in words) (rat pituitary cells): active in LH and FSH release, albeit at higher concentrations than required for GAP

CC(C)C[C@H](NC(=O)CNC(=O)[C@H](Cc1ccc(O)cc1)NC(=O)[C@H](CO)NC(=O)[C@H](Cc1c[nH]c2ccccc12)NC(=O)[C@H](Cc1c[nH]cn1)NC(=O)[C@@H]1CCC(=O)N1)C(=O)N[C@@H](CCCNC(=N)N)C(=O)N1CCC[C@H]1C(=O)NCC(N)=O [LHRH]
FSH (pg)/5 × 10^5 cells [1]: 11403 ± 350 pg/5 × 10^5 cells
LH (pg)/5 × 10^5 cells [1]: 30503 ± 3342 pg/5 × 10^5 cells
EC50 (rat anterior pituitary cells, read-out: Half-maximal stimulation of LH release): 0.8 nM

DAENLIDSFQEIVKEVGQLAETQRFECTTHQPRSPLRDLKGALESLIEEETGQKKI [GAP]
ED50 of stimulation of FSH secretion: ~0.5 nM
